Reference: PubChem BioAssay AID1117350 (Cheminformatics & Chemogenomics Research Group (CCRG), …, 2015)
“And” between values parts separate entries of the source, which are not always exact repeats. Equal entries are not always repeated. The source made the active and inactive calls. No rule for the calls is given here.

Test system: HeLa, chromatin condensation phenotype imaging
Test: HeLa chromatin condensation increase, dose response, imaging, IC50 (AID 1117350)

Compound | IC50
CCC(C)(C)C(=O)O[C@H]1C[C@@H](C)C=C2C=C[C@H](C)[C@H](CC[C@@H]3C[C@@H](O)CC(=O)O3)[C@H]21 | > 10 µM (inactive)
Cc1ccccc1C(=O)Nc1ccc(C(=O)N2CCCC(N(C)C)c3ccccc32)cc1 (stereo not given) | 3.41 µM
Cc1ccc([N+](=O)[O-])[c]2c1[O][Hg]2 | 1.22 µM
COC(=O)[C@H]1[C@H]2C[C@@H]3c4[nH]c5cc(OC)ccc5c4CCN3C[C@H]2C[C@@H](OC(=O)/C=C/c2ccc(O)c(OC)c2)[C@@H]1OC | > 10 µM (inactive)
Cc1cc(C2CCCCC2)n(O)c(=O)c1 | > 10 µM (inactive)
CCCNCC(O)COc1ccccc1C(=O)CCc1ccccc1 (stereo not given) | > 10 µM (inactive)
C[n+]1c2cc(N)ccc2cc2ccc(N)cc21 (tested in a mixture with another compound) | 2.19 µM
CCCSc1ccc2nc(NC(=O)OC)[nH]c2c1 | 0.0615 µM
O=Cc1ccc(O)c(O)c1O | > 10 µM (inactive)
COC(=O)Nc1nc2ccc(C(=O)C3CC3)cc2[nH]1 | 0.402 µM
CC(CC1c2ccccc2CCc2ccccc21)CN(C)C (stereo not given) | > 10 µM (inactive)
C[C@@H]1C[C@H]2[C@@H]3CCC4=CC(=O)C=C[C@]4(C)[C@@]3(Cl)[C@@H](O)C[C@]2(C)[C@@]1(OC(=O)c1ccco1)C(=O)CCl | > 10 µM (inactive)
C1CN(P2(N3CC3)=NP(N3CC3)(N3CC3)=NP(N3CC3)(N3CC3)=N2)CCO1 (stereo not given) | > 10 µM (inactive)
Cc1cc2c(C(C)C)c(O)c(O)c(C=O)c2c(O)c1-c1c(C)cc2c(C(C)C)c(O)c(O)c(C=O)c2c1O | > 10 µM (inactive)
Oc1c(I)cc(Cl)c2cccnc12 | > 10 µM (inactive)
COc1cc(-c2ccc(=O)[nH]n2)ccc1OC(F)F | > 10 µM (inactive)
CC(C)C[C@H](NC(=O)[C@H](CCc1ccccc1)NC(=O)CN1CCOCC1)C(=O)N[C@@H](Cc1ccccc1)C(=O)N[C@@H](CC(C)C)C(=O)[C@@]1(C)CO1 | > 10 µM (inactive)
O=C(CCl)c1ccc(Cl)cc1Cl | 0.541 µM
CCCCCCCCCCCCCC[N+](C)(C)C | > 10 µM (inactive)
COCCOC(=O)C1=C(C)NC(C)=C(C(=O)OC/C=C/c2ccccc2)C1c1cccc([N+](=O)[O-])c1 (stereo not given) | > 10 µM (inactive)
Cc1cc(CC(C)CC(C)(C)C)n(O)c(=O)c1 (stereo not given) | > 10 µM (inactive)
CN1CCC(Nc2ncc3ncnc(Nc4ccc(F)c(Cl)c4)c3n2)CC1 | > 10 µM (inactive)
CCCCCCCCCCCCNCCNCCNCC(=O)O | > 10 µM (inactive)

Compound | IC50
COc1ccc(-c2nc3ccc(C4=NNC(=O)CC4C)cc3[nH]2)cc1 (stereo not given) | > 10 µM (inactive)
CCCCCCCCCCCCCCCC[N+](C)(C)Cc1ccccc1 | > 10 µM (inactive)
Cc1ccc(S(=O)(=O)NC(=O)NN2CC3CCCC3C2)cc1 (stereo not given) | > 10 µM (inactive)
Fc1ccc(C(OCCN2CCN(CCCc3ccccc3)CC2)c2ccc(F)cc2)cc1 | > 10 µM (inactive)
CCN(CCCCOC(=O)c1ccc(OC)c(OC)c1)C(C)Cc1ccc(OC)cc1 (stereo not given) | > 10 µM (inactive)
CN(C)CCC=C1c2ccccc2CCc2ccccc21 | > 10 µM (inactive)
CCC(=O)c1ccc(O)cc1 | > 10 µM (inactive)
CC[C@]1(O)C[C@H]2CN(CCc3c([nH]c4ccccc34)[C@@](C(=O)OC)(c3cc4c(cc3OC)N(C=O)[C@H]3[C@@](O)(C(=O)OC)[C@H](OC(C)=O)[C@]5(CC)C=CCN6CC[C@]43[C@@H]65)C2)C1 | 0.0061 µM
CC[C@]1(O)C[C@@H]2CN(CCc3c([nH]c4ccccc34)[C@@](C(=O)OC)(c3cc4c(cc3OC)N(C)[C@H]3[C@@](O)(C(=O)OC)[C@H](OC(C)=O)[C@]5(CC)C=CCN6CC[C@]43[C@@H]65)C2)C1 | 0.00452 µM and 0.0032 µM
CCCCCCCCCCCCCCCCCCNC(=O)OC1CCN(C(=O)OC[C@H](COC(=O)N(Cc2cccc[n+]2CC)C(=O)c2ccccc2OC)OC)CC1 | > 10 µM (inactive)
NC(N)=NN=C(/C=C/c1ccc([N+](=O)[O-])o1)/C=C/c1ccc([N+](=O)[O-])o1 | > 10 µM (inactive)
CC(C)n1c(/C=C/[C@@H](O)C[C@@H](O)CC(=O)O)c(-c2ccc(F)cc2)c2ccccc21 | > 10 µM (inactive)
O=C1C(I)=CC(=C(c2cc(I)c(O)c(I)c2)c2ccccc2C(=O)O)C=C1I | > 10 µM (inactive)
CC(C)(C)C(=O)OCOP(=O)(COCCn1cnc2c(N)ncnc21)OCOC(=O)C(C)(C)C | > 10 µM (inactive)
CN(C)/N=N/c1nc[nH]c1C(N)=O | > 10 µM (inactive)
CCN(CC)CCOc1ccc(/C(=C(\Cl)c2ccccc2)c2ccccc2)cc1 | > 10 µM (inactive)
O=C(c1cc(O)c(O)c(O)c1)c1ccc(O)c(O)c1O | > 10 µM (inactive)
CCC(C)n1ncn(-c2ccc(N3CCN(c4ccc(OC[C@H]5CO[C@](Cn6cncn6)(c6ccc(Cl)cc6Cl)O5)cc4)CC3)cc2)c1=O (stereo not given in full) | > 10 µM (inactive)
O=c1c(-c2ccccc2)c1-c1ccccc1 | > 10 µM (inactive)
CCOc1ccc2nc3cc(N)ccc3c(N)c2c1 | > 10 µM (inactive)
COc1ccc(/C=C/C(=O)c2ccc(OC)cc2OC)cc1 | > 10 µM (inactive)
C[C@@H](O[C@H]1OCCN(Cc2n[nH]c(=O)[nH]2)[C@H]1c1ccc(F)cc1)c1cc(C(F)(F)F)cc(C(F)(F)F)c1 | > 10 µM (inactive)
CO[C@@]12[C@H](COC(N)=O)C3=C(C(=O)C(C)=C(N)C3=O)N1C[C@@H]1N[C@@H]12 | > 10 µM (inactive)

Compound | IC50
COc1cc([C@@H]2c3cc4c(cc3[C@H](O)[C@H]3COC(=O)[C@H]23)OCO4)cc(OC)c1OC | 0.0112 µM
O=c1[nH]cc(F)c(=O)[nH]1 | > 10 µM (inactive)
CCCCCCCCCCCC[N+](C)(C)Cc1ccccc1 | > 10 µM (inactive)
Oc1c(Cl)cc(Cl)cc1Sc1cc(Cl)cc(Cl)c1O | > 10 µM (inactive)
COc1ccc(Cc2nccc3cc(OC)c(OC)cc23)cc1OC | > 10 µM (inactive)
Oc1c(Cl)cc(Cl)c2cccnc12 | > 10 µM (inactive)
O=[N+]([O-])c1ccc(Oc2ccc(N=C=S)cc2)cc1 | > 10 µM (inactive)
CCCCCCNC(=O)n1cc(F)c(=O)[nH]c1=O | > 10 µM (inactive)
NC(=NCCCCCCN=C(N)/N=C(\N)Nc1ccc(Cl)cc1)/N=C(\N)Nc1ccc(Cl)cc1 | > 10 µM (inactive)
O=C1[C@H]2CCCC[C@H]2C(=O)N1CCCCN1CCN(c2nsc3ccccc23)CC1 | > 10 µM (inactive)
COc1ccc2cc1Oc1ccc(cc1)C[C@H]1c3c(cc4c(c3Oc3cc5c(cc3OC)CCN(C)[C@@H]5C2)OCO4)CCN1C | > 10 µM (inactive)
Nc1nc(F)nc2c1ncn2[C@@H]1O[C@H](CO)[C@@H](O)[C@@H]1O | > 10 µM (inactive)
CCCCc1ccc2nc(NC(=O)OC)[nH]c2c1 | 0.00717 µM
CC(=O)Nc1ccn(C2COC(COC(=O)c3ccccc3)O2)c(=O)n1 (stereo not given) | > 10 µM (inactive)
CSc1ccc2c(c1)C(N1CCN(C)CC1)Cc1ccccc1S2 (stereo not given) | > 10 µM (inactive)
COC(=O)Nc1nc2ccc(C(=O)c3cccs3)cc2[nH]1 | 0.0134 µM
CC[C@@]1(O)C(=O)OCc2c1cc1n(c2=O)Cc2cc3c(CN(C)C)c(O)ccc3nc2-1 | > 10 µM (inactive)
COCc1c(C(C)C)nc(C(C)C)c(/C=C/[C@@H](O)C[C@@H](O)CC(=O)O)c1-c1ccc(F)cc1 | > 10 µM (inactive)
Nc1nc(=S)c2[nH]cnc2[nH]1 | > 10 µM (inactive)
O=C(Nc1ccc(Br)cc1)c1cc(Br)cc(Br)c1O | > 10 µM (inactive)
Cc1nc(Nc2ncc(C(=O)Nc3c(C)cccc3Cl)s2)cc(N2CCN(CCO)CC2)n1 | > 10 µM (inactive)
CCCCCCC[N+](CC)(CC)CCCCc1ccc(Cl)cc1 | > 10 µM (inactive)
CCC(COC(=O)c1cc(OC)c(OC)c(OC)c1)(c1ccccc1)N(C)C (stereo not given) | > 10 µM (inactive)

Compound | IC50
CC(C)(C)C1CCC(CC2=C(O)c3ccccc3C(=O)C2=O)CC1 (stereo not given) | > 10 µM (inactive)
COc1cccc2c1C(=O)c1c(O)c3c(c(O)c1C2=O)C[C@@](O)(C(=O)CO)CC3OC1CC(N2CCOC(OC)C2)C(O)C(C)O1 (stereo not given in full) | 0.0118 µM
COc1c(C)c2c(c(O)c1C/C=C(\C)CCC(=O)OCCN1CCOCC1)C(=O)OC2 | > 10 µM (inactive)
CC(=O)[C@]1(O)Cc2c(O)c3c(c(O)c2[C@@H](O[C@H]2C[C@H](N)[C@H](O)[C@H](C)O2)C1)C(=O)c1ccccc1C3=O | 0.659 µM
O=c1[nH]c(=O)n([C@H]2C[C@H](O)[C@@H](CO)O2)cc1I | > 10 µM (inactive)
N[C@@H](Cc1ccc(N(CCCl)CCCl)cc1)C(=O)O | > 10 µM (inactive)
Nc1nc(Cl)nc2c1ncn2[C@@H]1O[C@H](CO)[C@@H](O)[C@@H]1F | > 10 µM (inactive)
CC(=O)O[C@@]12CO[C@@H]1C[C@H](O)[C@@]1(C)C(=O)[C@H](O)C3=C(C)[C@@H](OC(=O)[C@H](O)[C@@H](NC(=O)OC(C)(C)C)c4ccccc4)C[C@@](O)([C@@H](OC(=O)c4ccccc4)[C@H]21)C3(C)C | 0.00317 µM
Cc1cc(=O)c2c(O)c3c(O)cc(=O)c4c3c3c(cc(O)c1c23)C(C)(C)C=4O | > 10 µM (inactive)
COc1cccc2c1C(=O)c1c(O)c3c(c(O)c1C2=O)C[C@@](O)(C(C)=O)C[C@@H]3O[C@H]1C[C@H](N)[C@H](O)[C@H](C)O1 | 0.374 µM
O=c1[nH]c(=O)n([C@H]2C[C@H](O)[C@@H](CO)O2)cc1Br | > 10 µM (inactive)
CCN1/C(=C/C=C/c2sc3ccccc3[n+]2CC)Sc2ccccc21 | 4.48 µM
CCc1oc2ccccc2c1C(=O)c1cc(Br)c(O)c(Br)c1 | > 10 µM (inactive)
CC(C)=CCOc1ccc(/C=C/C(=O)c2ccc(OCC=C(C)C)cc2OCC(=O)O)cc1 | > 10 µM (inactive)
S=c1nc[nH]c2nc[nH]c12 | > 10 µM (inactive)
CN1CCCC(CC2c3ccccc3Sc3ccccc32)C1 (stereo not given) | > 10 µM (inactive)
CCN(CC)CCNc1ccc(CO)c2sc3ccccc3c(=O)c12 | > 10 µM (inactive)
Cc1cc(O)c2ccccc2c1O | > 10 µM (inactive)
CN(Cc1cnc2nc(N)nc(N)c2n1)c1ccc(C(=O)N[C@@H](CCC(=O)O)C(=O)O)cc1 | > 10 µM (inactive)
CC(C)OC(=O)OCOP(=O)(CO[C@H](C)Cn1cnc2c(N)ncnc21)OCOC(=O)OC(C)C | > 10 µM (inactive)
Cc1ccc2c(c1)c1c3n2CCNC3CCC1 (stereo not given) | > 10 µM (inactive)
